Results from ChEMBL document CHEMBL3621169, “Synthesis of tetrazole compounds as a novel type of potential antimicrobial agents and their synergistic effects with clinical drugs and interactions with calf thymus DNA” (Medchemcomm, 2015).
Converted amounts (≈) assume the structure as drawn.

Key:
[1] = Ionization constant, pKa of the compound by UV spectroscopy; assay type: physicochemical
[2] = n-octanol/water partition coefficient, log P of the compound at 25 deg C after 24 hrs by saturation shake flask based UV spectroscopy; assay type: physicochemical
[3] = test system: Staphylococcus aureus; assay: Antibacterial activity against Staphylococcus aureus ATCC 25923 after 24 hrs by micro broth dilution method; assay type: functional; conditions: ATCC 25923, 24 h
[4] = test system: Staphylococcus aureus; assay: Antibacterial activity against methicillin-resistant Staphylococcus aureus N315 after 24 hrs by micro broth dilution method; assay type: functional; conditions: N315, 24 h
[5] = test system: Bacillus spizizenii; assay: Antibacterial activity against Bacillus subtilis ATCC 6633 after 24 hrs by micro broth dilution method; assay type: functional; conditions: ATCC 6633, 24 h
[6] = test system: Micrococcus luteus; assay: Antibacterial activity against Micrococcus luteus ATCC 4698 after 24 hrs by micro broth dilution method; assay type: functional; conditions: ATCC 4698, 24 h
[7] = test system: Bacillus sp.; assay: Antibacterial activity against Bacillus proteus ATCC 13315 after 24 hrs by micro broth dilution method; assay type: functional; conditions: Bacillus sp. (in: firmicutes), ATCC 13315, 24 h
[8] = test system: Escherichia coli; assay: Antibacterial activity against Escherichia coli DH52 after 24 hrs by micro broth dilution method; assay type: functional; conditions: DH52, 24 h
[9] = test system: Pseudomonas aeruginosa; assay: Antibacterial activity against Pseudomonas aeruginosa ATCC 27853 after 24 hrs by micro broth dilution method; assay type: functional; conditions: ATCC 27853, 24 h
[10] = test system: Shigella dysenteriae; assay: Antibacterial activity against Shigella dysenteriae ATCC 51252 after 24 hrs by micro broth dilution method; assay type: functional; conditions: ATCC 51252, 24 h
[11] = test system: Candida albicans; assay: Antifungal activity against Candida albicans ATCC 90029 after 24 hrs by micro broth dilution method; assay type: functional; conditions: ATCC 90029, 24 h
[12] = test system: Cyberlindnera jadinii; assay: Antifungal activity against Candida utilis ATCC 9950 after 24 hrs by micro broth dilution method; assay type: functional; conditions: Williopsis jadinii, ATCC 9950, 24 h
[13] = test system: Candida; assay: Antifungal activity against Candida mycoderma after 24 hrs by micro broth dilution method; assay type: functional
[14] = test system: Aspergillus flavus; assay: Antifungal activity against Aspergillus flavus after 24 hrs by micro broth dilution method; assay type: functional

SMILES	pKa [1]	logP at 24 h [2]	MIC [3]	MIC [4]	MIC [5]	MIC [6]	MIC [7]	MIC [8]	MIC [9]	MIC [10]	MIC [11]	MIC [12]	MIC [13]	MIC [14]
CCCCCCN(Cc1nnn[nH]1)c1ccccc1	4.78	2.18	128 µg/mL (≈ 494 µM)	256 µg/mL (≈ 987 µM)	128 µg/mL (≈ 494 µM)	128 µg/mL (≈ 494 µM)	128 µg/mL (≈ 494 µM)	128 µg/mL (≈ 494 µM)	128 µg/mL (≈ 494 µM)	128 µg/mL (≈ 494 µM)	64 µg/mL (≈ 247 µM)	64 µg/mL (≈ 247 µM)	64 µg/mL (≈ 247 µM)	64 µg/mL (≈ 247 µM)
Fc1ccc(CN(Cc2nnn[nH]2)c2ccccc2)c(F)c1	4.13	1.36	64 µg/mL (≈ 212 µM)	32 µg/mL (≈ 106 µM)	64 µg/mL (≈ 212 µM)	64 µg/mL (≈ 212 µM)	64 µg/mL (≈ 212 µM)	64 µg/mL (≈ 212 µM)	32 µg/mL (≈ 106 µM)	64 µg/mL (≈ 212 µM)	64 µg/mL (≈ 212 µM)	16 µg/mL (≈ 53.1 µM)	16 µg/mL (≈ 53.1 µM)	32 µg/mL (≈ 106 µM)
Fc1ccccc1CN(Cc1nnn[nH]1)c1ccccc1	4.22	1.28	64 µg/mL (≈ 226 µM)	64 µg/mL (≈ 226 µM)	32 µg/mL (≈ 113 µM)	64 µg/mL (≈ 226 µM)	64 µg/mL (≈ 226 µM)	64 µg/mL (≈ 226 µM)	64 µg/mL (≈ 226 µM)	128 µg/mL (≈ 452 µM)	32 µg/mL (≈ 113 µM)	32 µg/mL (≈ 113 µM)	16 µg/mL (≈ 56.5 µM)	64 µg/mL (≈ 226 µM)
Clc1ccc(CN(Cc2nnn[nH]2)c2ccccc2)cc1Cl	4.49	1.63	128 µg/mL (≈ 383 µM)	128 µg/mL (≈ 383 µM)	64 µg/mL (≈ 191 µM)	128 µg/mL (≈ 383 µM)	128 µg/mL (≈ 383 µM)	64 µg/mL (≈ 191 µM)	64 µg/mL (≈ 191 µM)	64 µg/mL (≈ 191 µM)	64 µg/mL (≈ 191 µM)	32 µg/mL (≈ 95.7 µM)	16 µg/mL (≈ 47.9 µM)	32 µg/mL (≈ 95.7 µM)
COc1ccc(N(Cc2nnn[nH]2)Cc2ccc(F)cc2F)cc1	4.31	1.37	64 µg/mL (≈ 193 µM)	64 µg/mL (≈ 193 µM)	64 µg/mL (≈ 193 µM)	64 µg/mL (≈ 193 µM)	64 µg/mL (≈ 193 µM)	64 µg/mL (≈ 193 µM)	64 µg/mL (≈ 193 µM)	64 µg/mL (≈ 193 µM)	32 µg/mL (≈ 96.6 µM)	16 µg/mL (≈ 48.3 µM)	16 µg/mL (≈ 48.3 µM)	32 µg/mL (≈ 96.6 µM)
Cc1ccc(N(Cc2nnn[nH]2)Cc2ccc(F)cc2F)cc1	4.23	1.42	64 µg/mL (≈ 203 µM)	64 µg/mL (≈ 203 µM)	64 µg/mL (≈ 203 µM)	64 µg/mL (≈ 203 µM)	64 µg/mL (≈ 203 µM)	64 µg/mL (≈ 203 µM)	32 µg/mL (≈ 101 µM)	64 µg/mL (≈ 203 µM)	32 µg/mL (≈ 101 µM)	32 µg/mL (≈ 101 µM)	16 µg/mL (≈ 50.7 µM)	32 µg/mL (≈ 101 µM)
COc1ccc(N(Cc2nnn[nH]2)Cc2ccc(Cl)cc2Cl)cc1	4.29	1.58	32 µg/mL (≈ 87.9 µM)	64 µg/mL (≈ 176 µM)	32 µg/mL (≈ 87.9 µM)	32 µg/mL (≈ 87.9 µM)	32 µg/mL (≈ 87.9 µM)	32 µg/mL (≈ 87.9 µM)	32 µg/mL (≈ 87.9 µM)	32 µg/mL (≈ 87.9 µM)	16 µg/mL (≈ 43.9 µM)	8 µg/mL (≈ 22 µM)	8 µg/mL (≈ 22 µM)	16 µg/mL (≈ 43.9 µM)
CCCCCCCCCCCCN(Cc1nnn[nH]1)c1ccccc1	4.92	–	128 µg/mL (≈ 373 µM)	128 µg/mL (≈ 373 µM)	64 µg/mL (≈ 186 µM)	128 µg/mL (≈ 373 µM)	256 µg/mL (≈ 745 µM)	128 µg/mL (≈ 373 µM)	256 µg/mL (≈ 745 µM)	256 µg/mL (≈ 745 µM)	128 µg/mL (≈ 373 µM)	64 µg/mL (≈ 186 µM)	64 µg/mL (≈ 186 µM)	32 µg/mL (≈ 93.2 µM)
Fc1ccc(CN(Cc2nnn[nH]2)c2ccccc2)cc1	4.2	1.26	64 µg/mL (≈ 226 µM)	64 µg/mL (≈ 226 µM)	64 µg/mL (≈ 226 µM)	256 µg/mL (≈ 904 µM)	128 µg/mL (≈ 452 µM)	64 µg/mL (≈ 226 µM)	64 µg/mL (≈ 226 µM)	64 µg/mL (≈ 226 µM)	32 µg/mL (≈ 113 µM)	16 µg/mL (≈ 56.5 µM)	16 µg/mL (≈ 56.5 µM)	32 µg/mL (≈ 113 µM)
Fc1cccc(CN(Cc2nnn[nH]2)c2ccccc2)c1	4.19	1.29	64 µg/mL (≈ 226 µM)	64 µg/mL (≈ 226 µM)	32 µg/mL (≈ 113 µM)	64 µg/mL (≈ 226 µM)	64 µg/mL (≈ 226 µM)	32 µg/mL (≈ 113 µM)	64 µg/mL (≈ 226 µM)	32 µg/mL (≈ 113 µM)	32 µg/mL (≈ 113 µM)	16 µg/mL (≈ 56.5 µM)	32 µg/mL (≈ 113 µM)	32 µg/mL (≈ 113 µM)
Clc1ccc(CN(Cc2nnn[nH]2)c2ccccc2)cc1	4.38	1.39	64 µg/mL (≈ 214 µM)	128 µg/mL (≈ 427 µM)	32 µg/mL (≈ 107 µM)	64 µg/mL (≈ 214 µM)	32 µg/mL (≈ 107 µM)	32 µg/mL (≈ 107 µM)	64 µg/mL (≈ 214 µM)	64 µg/mL (≈ 214 µM)	16 µg/mL (≈ 53.4 µM)	32 µg/mL (≈ 107 µM)	16 µg/mL (≈ 53.4 µM)	32 µg/mL (≈ 107 µM)
Cc1ccc(N(Cc2nnn[nH]2)Cc2ccc(Cl)cc2Cl)cc1	4.26	1.99	32 µg/mL (≈ 91.9 µM)	16 µg/mL (≈ 45.9 µM)	64 µg/mL (≈ 184 µM)	32 µg/mL (≈ 91.9 µM)	32 µg/mL (≈ 91.9 µM)	16 µg/mL (≈ 45.9 µM)	32 µg/mL (≈ 91.9 µM)	32 µg/mL (≈ 91.9 µM)	16 µg/mL (≈ 45.9 µM)	16 µg/mL (≈ 45.9 µM)	8 µg/mL (≈ 23 µM)	16 µg/mL (≈ 45.9 µM)
Clc1ccc(CN(Cc2nnn[nH]2)c2ccccc2)c(Cl)c1	4.54	1.67	32 µg/mL (≈ 95.7 µM)	64 µg/mL (≈ 191 µM)	32 µg/mL (≈ 95.7 µM)	64 µg/mL (≈ 191 µM)	32 µg/mL (≈ 95.7 µM)	16 µg/mL (≈ 47.9 µM)	32 µg/mL (≈ 95.7 µM)	64 µg/mL (≈ 191 µM)	16 µg/mL (≈ 47.9 µM)	8 µg/mL (≈ 23.9 µM)	8 µg/mL (≈ 23.9 µM)	16 µg/mL (≈ 47.9 µM)
CCCCCCCCN(Cc1nnn[nH]1)c1ccccc1	4.83	2.24	128 µg/mL (≈ 445 µM)	128 µg/mL (≈ 445 µM)	128 µg/mL (≈ 445 µM)	64 µg/mL (≈ 223 µM)	128 µg/mL (≈ 445 µM)	64 µg/mL (≈ 223 µM)	256 µg/mL (≈ 891 µM)	128 µg/mL (≈ 445 µM)	64 µg/mL (≈ 223 µM)	128 µg/mL (≈ 445 µM)	32 µg/mL (≈ 111 µM)	128 µg/mL (≈ 445 µM)
